According to US20230227838A1, “ENHANCED CELL SURVIVAL AGAINST BIOTIC AND ABIOTIC STRESSES THROUGH SALICYLICK ACID-INDUCED NPR1 CONDENSATES” (priority 2020, published 2023):

Key:
[1] = tested on: ETI activated by RPP1; experiment: ATR1/RPP1-induced cell death (conductivity assay); type: in vivo, Nicotiana benthamiana; conditions: SA/NPR1-mediated; 1 mM SA
Excerpt: Chemical treatment, pathogen infection and cell death assays. […] At 2 days, the bacterial colonies were scored.
VIGS assay. The silencing of NbNPR1 (NbNPR1-RNAi) and NbCUL3 (NbCUL3-RNAi) was done using VIGS assay performed as previously described. Ten-day-old WT N. benthamiana plants were inoculated with Agrobacteria (GV3101) carrying the helper plasmid pTRV1-LIC mixed at 1:1 with a strain carrying either pTRV2-LIC (empty vector control, E.V.), pTRV2-NbPDS (positive control), pTRV2-NbNPR1 or pTRV2-NbCUL3 vectors. Ten days later, gene silencing in the mock and SA-treated plants was verified in the systemic leaves by qPCR using gene-specific and reference gene (eIF4a) primers (Table 6). NbNPR1 silencing was additionally confirmed by analysis of NbPR1 expression. The silenced leaves were used in the standard transient expression assay by agroinfiltration using strains carrying the indicated test genes; and gene expression was assayed at 2 dpi.

[2] = tested on: CUL3; experiment: Pull-down of Myc-CUL3 with GST-fused NPR1 or variants co-expressed in E. coli; type: binding, Arabidopsis thaliana
Excerpt: Plasmid construction and E. coli-based ubiquitination: The coding sequences for all Arabidopsis genes were amplified from cDNA. Point mutations of AtNPR1 (AT1G64280) were generated using the QuikChange II site-directed mutagenesis kit (Agilent). Overlap PCR was used to generate the deletion/truncation mutations of AtCUL3A (AT1G26830) and AtNPR1. The WT and mutated coding sequences for all genes and gene fusions were sub-cloned into the pDONR207 gateway donor vector and confirmed by sequencing. The obtained entry vectors were recombined into either plant or E. coli destination vectors without or with an N- or C-terminal tag. For in planta expression, genes were recombined into the plant binary vectors pK7FWG2, pSITE-4NB and pLN462 to generate C-terminal eGFP, mCherry and HA fusions, respectively; into pK7WGF2, pEG201, pEG202, pEG203 and pEG204 to generate N-terminal eGFP, HA, FLAG, Myc and V5 fusions, respectively. […] For bimolecular fluorescence complementation (BiFC), entry vectors carrying the coding sequences of genes and their mutant variants were recombined into the pSITE-cEYFP-N1 binary vector for C-terminal fusion with the cYFP half (YC), or into the pSITE-nEYFP-C1 for N-terminal fusion with the nYFP half (YN). […]

Compound | ETI activated by RPP1 (effector ATR1) [1] | interaction with CUL3 when co-expressed in E. coli [2]
O=C(O)c1ccccc1O [SA, salicylic acid] | inhibition | –
NPR1: wild-type Arabidopsis thaliana NPR1 protein, positive regulator of systemic acquired resistance | – | could be easily observed
